In patent US9662323B2, “Compounds having muscarinic receptor antagonist and beta2 adrenergic receptor agonist activity” (CHIESI FARMACEUTICI S.p.A., priority 2015, dated 2017):
Read-outs that look alike come from different tables or passages of the source.

Assays:
[1] = biological target: T1, Human β2 adrenoceptor (Homo sapiens, UniProt P07550); test: β2 Adrenoceptor Radioligand Binding Assay
T1 construct: purchased Perkin Elmer
Outline: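 Membranes were incubated 1 h at room temperature in 25 mM HEPES, 0.5% BSA, 1 mM EDTA, 0.02% ascorbic acid, pH 7.4, with 0.5% DMSO final. Bound radioligand was collected by GF/C filtration and counted by scintillation. IC50 values from competition curves were converted to Ki by Cheng–Prusoff.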

[2] = biological target: T2, Human M3 receptor (Homo sapiens, UniProt P20309); test: M3 Receptor Radioligand Binding Assay
T2 construct: purchased Perkin Elmer
T2 sequence (P20309 whole entry): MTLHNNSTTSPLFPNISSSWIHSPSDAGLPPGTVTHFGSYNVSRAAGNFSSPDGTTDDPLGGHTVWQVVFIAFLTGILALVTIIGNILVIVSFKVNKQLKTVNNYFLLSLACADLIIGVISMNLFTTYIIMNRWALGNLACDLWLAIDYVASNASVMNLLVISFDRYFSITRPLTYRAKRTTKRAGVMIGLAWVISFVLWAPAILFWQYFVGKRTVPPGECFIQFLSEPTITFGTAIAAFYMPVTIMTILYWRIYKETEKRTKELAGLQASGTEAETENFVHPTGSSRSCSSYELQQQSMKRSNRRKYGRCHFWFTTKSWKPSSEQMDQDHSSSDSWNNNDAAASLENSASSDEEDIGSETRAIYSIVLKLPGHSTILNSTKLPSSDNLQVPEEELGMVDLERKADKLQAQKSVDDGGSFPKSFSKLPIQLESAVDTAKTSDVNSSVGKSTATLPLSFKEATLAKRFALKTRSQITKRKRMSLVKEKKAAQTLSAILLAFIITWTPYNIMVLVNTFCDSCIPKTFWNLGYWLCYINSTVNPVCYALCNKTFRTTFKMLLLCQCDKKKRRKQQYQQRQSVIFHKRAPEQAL
Outline: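 Radioligand binding with 0.5% (v/v) final DMSO, incubated 2 h at room temperature with shaking. Membranes were collected on GF/C filters pre-treated with 0.5% polyethyleneimine, washed four times with assay buffer, and counted by scintillation.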

[3] = human β2 adrenoceptor membranes, 125-I Cyanopindolol, read-out: B2 binding affinity (Ki class)
[4] = human M3 receptor membranes, [3H]-N-methyl scopolamine, read-out: M3 binding affinity (Ki class)

T1 sequence (P07550 whole entry): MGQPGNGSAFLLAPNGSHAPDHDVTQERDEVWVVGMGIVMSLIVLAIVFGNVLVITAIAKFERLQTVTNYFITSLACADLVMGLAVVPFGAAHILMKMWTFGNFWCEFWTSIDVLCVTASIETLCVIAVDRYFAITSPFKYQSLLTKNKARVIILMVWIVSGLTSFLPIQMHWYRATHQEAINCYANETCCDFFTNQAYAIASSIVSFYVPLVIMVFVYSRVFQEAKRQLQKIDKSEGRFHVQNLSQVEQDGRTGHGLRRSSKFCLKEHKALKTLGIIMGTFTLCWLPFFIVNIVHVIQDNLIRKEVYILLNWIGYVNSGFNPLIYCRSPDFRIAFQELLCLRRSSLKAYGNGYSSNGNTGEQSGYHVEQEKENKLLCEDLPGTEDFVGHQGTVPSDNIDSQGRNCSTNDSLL

SMILES	Ki [1, 3] [nM]	Ki [2, 4] [nM]	Ki [1] [nM]	Ki [2] [nM]
O=C(c1ccc(OCCCCCNC[C@H](O)c2ccc(O)c3[nH]c(=O)ccc23)c(F)c1)N1CCC(C(=O)O[C@H]2CN3CCC2CC3)(c2ccccc2)CC1 [Compound 9, (R)-Quinuclidin-3-yl 1-(3-fluoro-4-((5-(((R)-2-hydroxy-2-(8-hydroxy-2-oxo-1,2-dihydroquinolin-5-yl)ethyl)amino)pentyl)oxy)benzoyl)-4-phenylpiperidine-4-carboxylate]	> 10	1 to 10	–	–
O=C(CCc1ccc(OCCCCNC[C@H](O)c2ccc(O)c3[nH]c(=O)ccc23)cc1)N1CCC(C(=O)O[C@H]2CN3CCC2CC3)(c2ccccc2)CC1 [Compound 32, (R)-Quinuclidin-3-yl 1-(3-(4-(4-(((R)-2-hydroxy-2-(8-hydroxy-2-oxo-1,2-dihydroquinolin-5-yl)ethyl)amino)butoxy)phenyl)propanoyl)-4-phenylpiperidine-4-carboxylate]	< 1	< 1	–	–
O=C(Cc1ccc(OCCCCNC[C@H](O)c2ccc(O)c3[nH]c(=O)ccc23)cc1)N1CCC(C(=O)O[C@H]2CN3CCC2CC3)(c2ccccc2)CC1 [Compound 30, (R)-Quinuclidin-3-yl 1-(2-(4-(4-(((R)-2-hydroxy-2-(8-hydroxy-2-oxo-1,2-dihydroquinolin-5-yl)ethyl)amino)butoxy)phenyl)acetyl)-4-phenylpiperidine-4-carboxylate]	< 1	1 to 10	–	–
O=C(c1ccc(OCCCCNC[C@H](O)c2ccc(O)c3[nH]c(=O)ccc23)cc1)N1CC(C(=O)O[C@H]2CN3CCC2CC3)(c2ccccc2)C1 [Compound 18A, (R)-Quinuclidin-3-yl 1-(4-(4-(((R)-2-hydroxy-2-(8-hydroxy-2-oxo-1,2-dihydroquinolin-5-yl)ethyl)amino)butoxy)benzoyl)-3-phenylazetidine-3-carboxylate]	< 1	1 to 10	–	–
Cc1ccc(CN(CCCNC[C@H](O)c2ccc(O)c3[nH]c(=O)ccc23)C(=O)Cc2ccc(CC(=O)N3CCC(C(=O)O[C@H]4CN5CCC4CC5)(c4ccccc4)CC3)cc2)cc1 [Compound 33, (R)-Quinuclidin-3-yl 1-(2-(4-(2-((3-(((R)-2-hydroxy-2-(8-hydroxy-2-oxo-1,2-dihydroquinolin-5-yl)ethyl)amino)propyl)(4-methylbenzyl)amino)-2-oxoethyl)phenyl)acetyl)-4-phenylpiperidine-4-carboxylate]	1 to 10	< 1	–	–
COc1cccc(CN(CCCNC[C@H](O)c2ccc(O)c3[nH]c(=O)ccc23)C(=O)Cc2ccc(CC(=O)N3CCC(C(=O)O[C@H]4CN5CCC4CC5)(c4ccccc4)CC3)cc2)c1 [Compound 38, (R)-Quinuclidin-3-yl 1-(2-(4-(2-((3-(((R)-2-hydroxy-2-(8-hydroxy-2-oxo-1,2-dihydroquinolin-5-yl)ethyl)amino)propyl)(3-methoxybenzyl)amino)-2-oxoethyl)phenyl)acetyl)-4-phenylpiperidine-4-carboxylate]	< 1	< 1	–	–
O=C(Cc1ccc(CC(=O)N(CCCNC[C@H](O)c2ccc(O)c3[nH]c(=O)ccc23)Cc2ccccc2N2CCOCC2)cc1)N1CCC(C(=O)O[C@H]2CN3CCC2CC3)(c2ccccc2)CC1 [Compound 44, (R)-Quinuclidin-3-yl 1-(2-(4-(2-((3-(((R)-2-hydroxy-2-(8-hydroxy-2-oxo-1,2-dihydroquinolin-5-yl)ethyl)amino)propyl)(2-morpholinobenzyl)amino)-2-oxoethyl)phenyl)acetyl)-4-phenylpiperidine-4-carboxylate]	1 to 10	< 1	–	–
CC(=O)N(Cc1ccc(CNC[C@H](O)c2ccc(O)c3[nH]c(=O)ccc23)cc1)Cc1ccc(C(=O)N2CCC(C(=O)O[C@H]3CN4CCC3CC4)(c3ccccc3)CC2)cc1 [Compound 57, (R)-Quinuclidin-3-yl 1-(4-((N-(4-((((R)-2-hydroxy-2-(8-hydroxy-2-oxo-1,2-dihydroquinolin-5-yl)ethyl)amino)methyl)benzyl)acetamido)methyl)benzoyl)-4-phenylpiperidine-4-carboxylate]	1 to 10	< 1	–	–
Cc1cc(/C=C/C(=O)N2CCC(C(=O)O[C@H]3CN4CCC3CC4)(c3ccccc3)CC2)ccc1OCCCCCNC[C@H](O)c1ccc(O)c2[nH]c(=O)ccc12 [Compound 18, (R)-Quinuclidin-3-yl 1-((E)-3-(4-((5-(((R)-2-hydroxy-2-(8-hydroxy-2-oxo-1,2-dihydroquinolin-5-yl)ethyl)amino)pentyl)oxy)-3-methylphenyl)acryloyl)-4-phenylpiperidine-4-carboxylate]	< 1	< 1	–	–
O=C(NCCCNC[C@H](O)c1ccc(O)c2[nH]c(=O)ccc12)c1ccc(COc2ccc(C(=O)N3CC(C(=O)O[C@H]4CN5CCC4CC5)(c4ccccc4)C3)cc2)cc1 [Compound 19A, (R)-Quinuclidin-3-yl 1-(4-((4-((3-(((R)-2-hydroxy-2-(8-hydroxy-2-oxo-1,2-dihydroquinolin-5-yl)ethyl)amino)propyl)carbamoyl)benzyl)oxy)benzoyl)-3-phenylazetidine-3-carboxylate]	< 1	< 1	–	–
Cc1cc(CCC(=O)N2CCC(C(=O)O[C@H]3CN4CCC3CC4)(c3ccccc3)CC2)ccc1OCCCCCNC[C@H](O)c1ccc(O)c2[nH]c(=O)ccc12 [Compound 17, (R)-Quinuclidin-3-yl 1-(3-(4-((5-(((R)-2-hydroxy-2-(8-hydroxy-2-oxo-1,2-dihydroquinolin-5-yl)ethyl)amino)pentyl)oxy)-3-methylphenyl)propanoyl)-4-phenylpiperidine-4-carboxylate]	< 1	< 1	–	–
O=C(c1ccc(OCCCCCCNC[C@H](O)c2ccc(O)c3[nH]c(=O)ccc23)cc1)N1CC(C(=O)O[C@H]2CN3CCC2CC3)(c2ccc(F)cc2)C1 [Compound 3A, (R)-Quinuclidin-3-yl 3-(4-fluorophenyl)-1-(4-((6-(((R)-2-hydroxy-2-(8-hydroxy-2-oxo-1,2-dihydroquinolin-5-yl)ethyl)amino)hexyl)oxy)benzoyl)azetidine-3-carboxylate]	< 1	1 to 10	–	–
O=C(Cc1ccc(CC(=O)N(CCCNC[C@H](O)c2ccc(O)c3[nH]c(=O)ccc23)Cc2ccccc2OCc2ccccc2)cc1)N1CCC(C(=O)O[C@H]2CN3CCC2CC3)(c2ccccc2)CC1 [Compound 43, (R)-Quinuclidin-3-yl 1-(2-(4-(2-((2-(benzyloxy)benzyl)(3-(((R)-2-hydroxy-2-(8-hydroxy-2-oxo-1,2-dihydroquinolin-5-yl)ethyl)amino)propyl)amino)-2-oxoethyl)phenyl)acetyl)-4-phenylpiperidine-4-carboxylate]	1 to 10	< 1	–	–
O=C(c1ccc(OCc2cccc(OCCCCNC[C@H](O)c3ccc(O)c4[nH]c(=O)ccc34)c2)cc1)N1CC(C(=O)O[C@H]2CN3CCC2CC3)(c2ccccc2)C1 [Compound 7A, (R)-Quinuclidin-3-yl 1-(4-((3-(4-(((R)-2-hydroxy-2-(8-hydroxy-2-oxo-1,2-dihydroquinolin-5-yl)ethyl)amino)butoxy)benzyl)oxy)benzoyl)-3-phenylazetidine-3-carboxylate]	< 1	1 to 10	–	–
O=C(Cc1ccc(OCCCCCNC[C@H](O)c2ccc(O)c3[nH]c(=O)ccc23)cc1)N1CCC(C(=O)O[C@H]2CN3CCC2CC3)(c2ccccc2)CC1 [Compound 8, (R)-Quinuclidin-3-yl 1-(2-(4-((5-(((R)-2-hydroxy-2-(8-hydroxy-2-oxo-1,2-dihydroquinolin-5-yl)ethyl)amino)pentyl)oxy)phenyl)acetyl)-4-phenylpiperidine-4-carboxylate]	< 1	< 1	–	–
O=C(NCCC(=O)N1CCC(C(=O)O[C@H]2CN3CCC2CC3)(c2ccccc2)CC1)c1ccc(CNC[C@H](O)c2ccc(O)c3[nH]c(=O)ccc23)cc1 [Compound 31, (R)-Quinuclidin-3-yl 1-(3-(4-((((R)-2-hydroxy-2-(8-hydroxy-2-oxo-1,2-dihydroquinolin-5-yl)ethyl)amino)methyl)benzamido)propanoyl)-4-phenylpiperidine-4-carboxylate]	< 1	1 to 10	–	–
O=C(c1ccc(CCNC[C@H](O)c2ccc(O)c3[nH]c(=O)ccc23)cc1)N1CCC(C(=O)O[C@H]2CN3CCC2CC3)(c2ccccc2)CC1 [Compound 20, (R)-Quinuclidin-3-yl 1-(4-(2-(((R)-2-hydroxy-2-(8-hydroxy-2-oxo-1,2-dihydroquinolin-5-yl)ethyl)amino)ethyl)benzoyl)-4-phenylpiperidine-4-carboxylate]	< 1	> 10	–	–
O=C(CCc1ccc(OCCCCCNC[C@H](O)c2ccc(O)c3[nH]c(=O)ccc23)cc1)N1CCC(C(=O)O[C@H]2CN3CCC2CC3)(c2ccccc2)CC1 [Compound 7, (R)-Quinuclidin-3-yl 1-(3-(4-((5-(((R)-2-hydroxy-2-(8-hydroxy-2-oxo-1,2-dihydroquinolin-5-yl)ethyl)amino)pentyl)oxy)phenyl)propanoyl)-4-phenylpiperidine-4-carboxylate]	< 1	< 1	–	–
O=C(c1ccc(CN(Cc2ccc(CNC[C@H](O)c3ccc(O)c4[nH]c(=O)ccc34)cc2)C(=O)c2ccccc2)cc1)N1CCC(C(=O)O[C@H]2CN3CCC2CC3)(c2ccccc2)CC1 [Compound 59, (R)-Quinuclidin-3-yl 1-(4-((N-(4-((((R)-2-hydroxy-2-(8-hydroxy-2-oxo-1,2-dihydroquinolin-5-yl)ethyl)amino)methyl)benzyl)benzamido)methyl)benzoyl)-4-phenylpiperidine-4-carboxylate]	–	–	> 10	< 1
